Assay results reported in US8470803B2, “Boron-containing small molecules” (Anacor Pharmaceuticals, Inc., priority 2008, dated 2013).

Tests used:
TNF-α = assay: Cytokine assay: TNF-α release, LPS-induced PBMC; type: cell-based; conditions: human PBMC, 1 μg/mL LPS, supernatant at 24 hours
Description: (§1) Frozen human peripheral blood mononucleocytes (PBMC) were thawed and centrifuged. Cryopreservation media was aspirated off of the cell pellet, and the cells were resuspended in fresh culture media (CM) comprising RPMI 1640 and 10% FBS in 96 well plates. Test article was dissolved in DMSO to form a 10 mM sample (DMSO, 100%). The 10 mM samples were diluted to 100 μM in CM (DMSO, 1%), then further diluted to 10, 1, 0.1, 0.01 μM in 200 μL of CM (n=3). Inducer (1 μg/mL) LPS for TNF-α or 20 ug/mL PHA for IFNγ, IL-2, IL-4, IL-5 and IL-10. IL-23 was induced with 100 ng/ml IFN-g+[…], using THP-1 cells. Vehicle (1% DMSO) was used as a control for this experiment. Vehicle without inducer was used as a negative control. Cells were incubated at 37° C., 5% CO2. Supernatants were extracted at 24 hours (for TNF-α, IL-2 and IFNγ) and 48 hours (for IL-4, IL-5, IL-10 and IL-23), and stored at −20° C. Supernatants were thawed and assayed for cytokine expression using the fluorochrome-labeled cytokine-specific beads and a BD FACSArray™. IL-23 was assayed using a commercial ELISA kit (R&D Systems).

IL-2 = assay: Cytokine assay: IL-2 release, PHA-induced PBMC; type: cell-based; conditions: human PBMC, 20 ug/mL PHA, 24 hours
Description: as §1

IL-γ = assay: Cytokine assay: IFNγ (IL-γ [sic]) release, PHA-induced PBMC; type: cell-based; conditions: human PBMC, 20 ug/mL PHA, 24 hours
Description: as §1

IL-4 = assay: Cytokine assay: IL-4 release, PHA-induced PBMC; type: cell-based; conditions: human PBMC, 20 ug/mL PHA, 48 hours
Description: as §1

IL-5 = assay: Cytokine assay: IL-5 release, PHA-induced PBMC; type: cell-based; conditions: human PBMC, 20 ug/mL PHA, 48 hours
Description: as §1

IL-10 = assay: Cytokine assay: IL-10 release, PHA-induced PBMC; type: cell-based; conditions: human PBMC, 20 ug/mL PHA, 48 hours
Description: as §1

[1] = test system: T1, PDE4 partially purified from human U-937 myeloid leukemia cells; assay: PDE4 assay ([3H]cAMP hydrolysis); type: biochemical; conditions: PDE4 from U-937 cells, 1 mM cAMP, pH 7.5, 20 minutes at 25° C.
T1 construct: PDE4 partially purified from human U-937 myeloid leukemia cells was used
Description: PDE4 partially purified from human U-937 myeloid leukemia cells was used. Test article and/or vehicle was incubated with 0.2 mg enzyme and 1 mM cAMP containing 0.01 mM [3H]cAMP in Tris buffer pH 7.5 for 20 minutes at 25° C. The reaction was terminated by boiling for 2 minutes and the resulting AMP is converted to adenosine by addition of 10 mg/ml snake venom nucleotidase and further incubation at 37° C. for 10 minutes. Unhydrolyzed cAMP is bound to AG1-X2 resin, and remaining [3H]Adenosine in the aqueous phase is quantitated by scintillation counting.

IL-23 = assay: Cytokine assay: IL-23 release, IFN-g + LPS induced THP-1 cells; type: cell-based; conditions: Homo sapiens, 100 ng/ml IFN-g + 1 mg/ml LPS, 48 hours, ELISA
Description: as §1

K-ATP channel = K-ATP channel (SUR) binding; cited from earlier work

Row | SMILES | IC50 (TNF-α) | IC50 (IL-2) | IC50 (IL-γ) | IC50 (IL-4) | IC50 (IL-5) | IC50 (IL-10) | IC50 [1] | IC50 (IL-23) | pKi (K-ATP channel)
1 | CC(C)(C)OC(=O)N(c1ccc(C#N)cc1)c1ccc2c(c1)COB2O [C1, 5-[N-tert-Butoxycarbonyl-(4-cyanophenylamino)]-1,3-dihydro-1-hydroxybenzoxaborole] | 1100 nM | 960 nM | 620 nM | > 10000 nM | 2420 nM | 5590 nM | 2750 nM |  | 
2 | N#Cc1ccc(Nc2ccc3c(c2)COB3O)cc1 [C2, 5-(4-Cyanophenylamino)-1,3-dihydro-1-hydroxybenzoxaborole] | 1080 nM | 130 nM | 1510 nM | > 10000 nM | 6830 nM | > 10000 nM | 414 nM | 7350 nM | 
3 | CN(c1ccc(C#N)cc1)c1ccc2c(c1)COB2O [C3, 5-[N-(4-Cyanophenyl)-N-methylamino]-1,3-dihydro-1-hydroxybenzoxaborole] | 1300 nM | 880 nM | 2000 nM | > 10000 nM | 3500 nM | 3100 nM | 387 nM |  | 
4 | CC1=NS(=O)(=O)c2cc(Cl)ccc2N1 [diazoxide] |  |  |  |  |  |  |  |  | 3.8

The next lines start with results.

Row | IC50 (TNF-α) | IC50 (IL-2) | IC50 (IL-γ) | IC50 (IL-4) | IC50 (IL-5) | IC50 (IL-10) | IC50 [1] | IC50 (IL-23) | SMILES | pKi (K-ATP channel)
5 | 360 nM | 220 nM | 370 nM | 33000 nM | 400 nM | 6000 nM | 180 nM | 5770 nM | COc1nc(N(C(=O)OC(C)(C)C)c2ccc3c(c2)COB3O)ccc1C#N [C4, tert-Butyl 5-cyano-6-methoxypyridin-2-yl(1-hydroxy-1,3-dihydrobenzo[c][1,2]oxaborol-5-yl)carbamate] | 
6 | 260 nM | 210 nM | 300 nM | 23000 nM | 700 nM | 3700 nM | 340 nM | 2740 nM | COc1nc(Nc2ccc3c(c2)COB3O)ccc1C#N [C5, 6-(1-hydroxy-1,3-dihydrobenzo[c][1,2]oxaborol-5-ylamino)-2-methoxynicotinonitrile] | 
